The values that follow come from patent US5962502A, “Polyamidic acid derivatives with antigastrin activity, a method for their preparation, and their pharmaceutical use” (priority 1993, dated 1999).

Assay [1] concerns acid secretion induced by pentagastrin. The assay can be described thus: Acid secretion induced by pentagastrin in the anaesthetized rat. The assay is classed as in vivo. Particulars: for ED50: iv, 1 h, I.V. bolus, pentagastrin 30 mcg/kg/h, read-out: Activity (ID50), inhibition of the acid secretion induced by pentagastrin. The method, then:
The activity of the compounds of the invention against gastric secretion performed by means of a mechanism with an antigastrin effect, was examined in vivo in anaesthetized rats with the use of male animals weighing about 200 g. Gastric secretion was stimulated with pentagastrin and Lai's method [Gut 5, (1964), 327-341 ] was used, with slight modification.
After tracheotomy, the oesophagus and duodenum were cannulated. A tepid solution (37° C.) of 0.25 mM NaOH was perfused and was passed through the stomach by means of a peristaltic pump at a constant flow-rate of 1 ml/minute. After stabilization for 20 minutes, the stimulant, dissolved in a physiological solution, was perfused for 120 minutes at a dose of 30 mcg/kg/h, in a volume of 0.95 ml/hour. After perfusion for 60 minutes (the basal stimulation), the product under test was administered intravenously (I.V.) as a bolus and perfusion of the stimulant was continued for a further 60 minutes. The acid secretion was recorded continuously as a function of time.
The activity of the product was evaluated as the percentage reduction of secreted acidity after the administration of the product, in comparison with the basal acidity measured during the first 60 minutes of collection in the presence of pentagastrin alone.
The antagonistic compounds tested were administered in various doses so that an ID50, that is, the dose (in mg/kg I.V.) which could inhibit the effect of pentagastrin by 50%, could be calculated.

Assay [2] concerns the target T1, central CCK-B receptor (Cavia porcellus, UniProt H0VZC5).
T1 construct: Cerebral cortices of male white guinea-pigs were thus used; from tissue; host or cells: cerebral cortex membranes of male white guinea-pigs
T1 sequence (H0VZC5 1-426): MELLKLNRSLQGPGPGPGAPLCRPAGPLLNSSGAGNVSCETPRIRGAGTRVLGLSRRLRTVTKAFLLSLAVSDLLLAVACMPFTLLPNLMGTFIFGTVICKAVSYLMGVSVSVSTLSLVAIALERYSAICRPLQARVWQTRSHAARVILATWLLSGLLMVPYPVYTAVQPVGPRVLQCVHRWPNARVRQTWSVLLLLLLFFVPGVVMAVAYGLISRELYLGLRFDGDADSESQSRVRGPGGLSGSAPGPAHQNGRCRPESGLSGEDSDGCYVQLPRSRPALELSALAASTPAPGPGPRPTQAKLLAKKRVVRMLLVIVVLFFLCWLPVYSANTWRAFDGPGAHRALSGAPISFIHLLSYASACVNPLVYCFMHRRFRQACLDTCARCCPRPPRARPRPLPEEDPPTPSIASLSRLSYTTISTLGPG
The assay is described as follows: Inhibition of the binding of [3-H][N-methyl-N-leucine]CCK-8 to guinea-pig cortical membranes. The settings on record: guinea-pig cortical membranes; for IC50: 150 minutes at 25° C. On the procedure:
The ability of the compounds of the invention to interact with the central CCK-B receptor was evaluated with the use of non-sulphated [3-H] […] 225 (3) (1990), 1278-1286].
Cerebral cortices of male white guinea-pigs were thus used, according to the method mentioned above, so as to obtain a membrane content corresponding to about 300 mcg of proteins/ml. The membranes were incubated together with the radioactive tracer and the compounds under test for 150 minutes at 25° C. After the supernatant had been discarded, the radioactivity associated with the pellet was determined with a liquid scintillator. The specific binding was determined as the difference between the binding in the absence and in the presence of 5.10^-6 M CCK-8.

In assay [3] the target is T2, gastrin receptors or type-B cholecystokinin (CCK-B) receptors (Oryctolagus cuniculus, UniProt P46627).
T2 construct: Rabbit gastric mucous-membrane cells were prepared by conventional techniques; endogenous in cells; host or cells: freshly isolated rabbit gastric mucosal cells, enriched by elutriation to about 70% parietal cells
T2 sequence (P46627 1-452): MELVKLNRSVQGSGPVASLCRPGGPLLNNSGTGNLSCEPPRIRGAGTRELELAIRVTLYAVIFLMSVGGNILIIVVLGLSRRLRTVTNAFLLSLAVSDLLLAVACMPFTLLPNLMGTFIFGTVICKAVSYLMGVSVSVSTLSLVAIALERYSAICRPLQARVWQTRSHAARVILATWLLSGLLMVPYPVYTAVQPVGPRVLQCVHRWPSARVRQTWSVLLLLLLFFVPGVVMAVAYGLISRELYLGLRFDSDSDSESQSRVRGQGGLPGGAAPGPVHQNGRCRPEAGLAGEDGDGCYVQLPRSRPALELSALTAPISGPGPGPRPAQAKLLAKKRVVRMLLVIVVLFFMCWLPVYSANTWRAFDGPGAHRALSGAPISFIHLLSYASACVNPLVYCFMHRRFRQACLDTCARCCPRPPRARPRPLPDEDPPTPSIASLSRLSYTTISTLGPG
The assay can be described thus: Inhibition of the gastrin-induced increase of cytosolic calcium in rabbit gastric mucous-membrane cells (Fura 2). It is filed as cell-based. The settings on record: for Ratio IC50 Binding cortex / IC50 (gastric mucous cells): binding values taken from Table 3; for IC50, inhibition of the increase of cytosolic calcium: rabbit gastric mucous cells enriched in parietal cells, gastrin 5×10^-8. The text has this:
The parietal cells of the gastric mucous membrane are responsible for the secretion of HCl. They have specific membrane receptors which can be activated by gastrin and which have been defined as gastrin receptors or type-B cholecystokinin (CCK-B) receptors. Since it has been observed that the activation of the CCK-B receptors by gastrin leads to an increase in the cytosolic levels of calcium ions, a technique involving the measurement of the increase in intracellular calcium induced by gastrin in the presence and in the absence of the compounds of the invention was used as an index of the antigastrin activity of the compounds. Rabbit gastric mucous-membrane cells were prepared by conventional techniques with the use of collagenase and pronase as digestive enzymes. The cellular preparation obtained by the enzymatic digestion was composed of parietal cells, zymogen cells and mucous-membrane cells. […] The cells were then washed and resuspended in a saline solution buffered with HEPES containing, in mM: […] Each measurement was carried out on cells in suspension (0.8×10^6 /ml) at a thermostatically-controlled temperature of 37° C. and with constant magnetic stirring. The fluorescence was recorded with the use of a spectrofluorometer. The operative wavelengths were 340/380 nm for excitation and 505 nm for emission. […] Biol. Chem. 260 (1985), 3440]. […] The results thus obtained for some compounds of the invention are given in Table 4, which also gives an index derived from the ratio between the peripheral antigastrin activity just described and the displacement activity found in the test on binding to the guinea-pig cortex receptors described above.

Assay [4] concerns the target T3, CCK-A (Cavia porcellus, UniProt Q63931).
T3 construct: A longitudinal strip of guinea-pig gall-bladder was put in a bath for isolated organs; from tissue; host or cells: guinea-pig gall bladder longitudinal strip
T3 sequence (Q63931 1-430): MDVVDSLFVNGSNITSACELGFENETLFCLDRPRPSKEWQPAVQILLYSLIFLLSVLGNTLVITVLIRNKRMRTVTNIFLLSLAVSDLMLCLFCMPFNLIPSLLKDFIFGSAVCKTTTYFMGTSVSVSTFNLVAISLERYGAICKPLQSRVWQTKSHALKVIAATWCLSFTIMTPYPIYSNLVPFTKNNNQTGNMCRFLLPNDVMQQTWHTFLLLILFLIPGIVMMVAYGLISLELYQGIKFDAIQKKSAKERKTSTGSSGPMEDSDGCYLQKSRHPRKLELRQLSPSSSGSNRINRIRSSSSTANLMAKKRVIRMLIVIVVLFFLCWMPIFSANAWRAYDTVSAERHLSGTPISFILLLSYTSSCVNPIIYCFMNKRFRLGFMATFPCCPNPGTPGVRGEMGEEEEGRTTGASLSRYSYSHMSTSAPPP
The assay can be described thus: Anti-CCK-A activity on guinea-pig gall bladder stimulated in vitro by CCK-8. The method, then: The experimental model used was guinea-pig gall bladder stimulated in vitro by CCK-8, with the use of lorglumide as the reference standard. A longitudinal strip of guinea-pig gall-bladder was put in a bath for isolated organs in the presence of Krebs buffer at a temperature of 32° C., with continuous oxygenation with an oxygen-CO2 mixture (95-[…]). The isometric contractions were detected by means of a force transducer and recorded.

SMILES strings stand for the structures. Where “and” joins values, the source holds several entries; their conditions need not be identical. Equal values may be shown once.

The term IC50 denotes the concentration that gives 50% inhibition. Regarding `CN(C(=O)CC[C@@H](NC(=O)c1cc(Cl)cc(Cl)c1)C(=O)N1CCC2(CCCC2)CC1)[C@H](Cc1ccccc1)C(=O)O` [Compound 12], the ED50 in assay [1] is 13.6 mg/kg and 24.2 µmol/kg. Moreover, in assay [2], the “inhibition of the binding of [N-methyl-N-leucine]CCK-8, result in words” value is “potent inhibitors” and the half-inhibitory concentration (IC50) is 100 nM. Also, in assay [3], the “Ratio IC50 Binding cortex / IC50 (gastric mucous cells)” value (“Ratio IC50 Binding cortex / IC50” for short) turned out to be 1.7 and the “IC50, inhibition of the increase of cytosolic calcium” value came to 60 nM.

As to `O=C(O)C[C@H](Cc1ccccc1)NC(=O)CC[C@@H](NC(=O)c1cc(Cl)cc(Cl)c1)C(=O)N1CCC2(CCCC2)CC1` [Compound 14], in assay [1], the ED50 is 9.7 mg/kg and 16.1 µmol/kg. Moreover, the “antigastrin activity relative to the diastereoisomer at the carbon atom (**)” value in assay [1] (pentagastrin-induced acid secretion) was “about 1.5 times”. In addition, in assay [2], the half-inhibitory concentration (IC50) was found to be 340 nM. Further, in assay [3], the “Ratio IC50 Binding cortex / IC50” value turned out to be 17.0 and the “IC50, inhibition of the increase of cytosolic calcium” value stood at 20 nM.

Regarding `O=C(CC[C@@H](NC(=O)c1cc(Cl)cc(Cl)c1)C(=O)N1CCC2(CCCC2)CC1)N[C@H](Cc1ccccn1)C(=O)O` [Compound 27], the “Ratio I/II (CCK-A IC50 / CCK-B IC50)” value in assay [4] (gall bladder IC50 over gastric mucous cells IC50) is given as 14.8. Besides, in assay [4] (guinea-pig gall bladder in vitro, CCK-8 10 ng/ml, read-out: CCK-A-antagonistic activity IC50 (I)), the IC50 stood at 3400 nM. In assay [2], this compound returned an IC50 of 150 nM. Moreover, in assay [3], the “Ratio IC50 Binding cortex / IC50” value amounted to 0.6 and the “IC50, inhibition of the increase of cytosolic calcium” value is 230 nM. In assay [3] (data taken from Table 4 (rabbit gastric mucous cells), reprinted in Table 6), the “CCK-B-antagonistic activity IC50 (II)” value is 230 nM.

As for `CN(Cc1ccccc1)C(=O)[C@@H](CCC(=O)O)NC(=O)CC[C@@H](NC(=O)c1cc(Cl)cc(Cl)c1)C(=O)N1CCC2(CCCC2)CC1` [Compound 38], in assay [1], the ED50 is 7 mg/kg and 10.4 µmol/kg. For the same compound, the IC50 in assay [2] turned out to be 180 nM. For the same compound, in assay [3], the “Ratio IC50 Binding cortex / IC50” value is given as 6.0 and the “IC50, inhibition of the increase of cytosolic calcium” value was 30 nM.

Regarding `O=C(N[C@H](CCC(=O)N1CCCC(C(=O)O)C1)C(=O)N1CCC2(CCCC2)CC1)c1cc(Cl)cc(Cl)c1` (stereo partly drawn) [Compound 58, (R)-1-(piperidine-3-carboxy)-1-oxo-5-(8-azaspiro[4.5]decan-8-yl)-4-(3,5-dichloro-benzoylamino)-5-oxopentanoic acid], the ED50 in assay [1] was 10.1 mg/kg and 18.3 µmol/kg. In addition, the concentration for half-maximal inhibition (IC50) in assay [2] stood at 640 nM. In assay [3], the “Ratio IC50 Binding cortex / IC50” value worked out at 1.9 and the “IC50, inhibition of the increase of cytosolic calcium” value amounted to 330 nM.
